Reference: patent US10441608B2, “Continuous methods for treating liquids and manufacturing certain constituents (e.g., nanoparticles) in liquids, apparatuses and nanoparticles and nanoparticle/liquid solution(s) resulting therefrom” (Clene Nanomedicine, Inc., priority 2009, dated 2019)
“And” between values parts separate entries of the source, which are not always exact repeats. Equal values may be shown once. Read-outs that look alike come from different tables or passages of the source.

Assays:
Type in all cases: cell-based
[1] = test system: Gram-Positive and Gram Negative bacteria
[2] = test system: Trypanosoma b. rhodesiense STIB 900; assay: Alamar Blue assay against Human African Trypanosomiasis parasites
Method: Minimum Essential Medium (50 μl) supplemented according to Baltz et al. (1985) with 2-mercaptoethanol and 15% heat-inactivated horse serum was added to each well of a 96-well microtiter plate.
Serial drug dilutions were prepared covering a range from 90 to 0.123 μg/ml.
Then 10^4 bloodstream forms of Trypanosoma b. rhodesiense STIB 900 in 50 μl were added to each well and the plate incubated at 37° C. under a 5% CO2 atmosphere for 72 hours.
10 μl of Alamar Blue (12.5 mg resazurin dissolved in 100 mL distilled water) were then added to each well and incubation continued for a further 2-4 hours.
Then the plates were read with a Spectramax Gemini XS microplate fluorometer (Molecular Devices Cooperation, Sunnyvale, Calif., USA) using an excitation wave length of 536 nm and an emission wave length of 588 nm.
Data were analysed using the software Softmax Pro (Molecular Devices Cooperation, Sunnyvale, Calif., USA). Decrease of fluorescence (=inhibition) was expressed as percentage of the fluorescence of control cultures and plotted against the drug concentrations.
From the sigmoidal inhibition curves the IC50 values were calculated.

a variety of fungi = assay: Broth microdilution MIC/MID 50 against fungi; details: antifungal concentration
Method: The clinical and laboratory standards institute Broth Microdilution Methodology was employed, however, the growth medium used was an “RPMI” medium. Table 22c uses a format similar to that used for Table 22a, however, the test solutions were tested against a variety of fungi.

CCC[C@@H]1C[C@@H](C(=O)N[C@@H]([C@H]2O[C@H](SC)[C@H](O)[C@@H](O)[C@H]2O)[C@H](C)Cl)N(C)C1 [Clindamycin]
MID/MIC (amount of antibiotic) [1]: ≤0.06 µg/mL
MID/MIC (amount of antibiotic) ([1]; CD01 Clostridium difficile, Brucella broth with 5% LHB, 1 μg/mL Vit K, 1 μg/mL Haemin): 4 µg/mL
MID/MIC (amount of antibiotic) ([1]; CD02 Clostridium difficile, Brucella broth with 5% LHB, 1 μg/mL Vit K, 1 μg/mL Haemin): 2 µg/mL
MID/MIC (amount of antibiotic) ([1]; CD03 Clostridium difficile, Brucella broth with 5% LHB, 1 μg/mL Vit K, 1 μg/mL Haemin): 2 µg/mL and 1 µg/mL
MID/MIC (amount of antibiotic) ([1]; CD04 Clostridium difficile, Brucella broth with 5% LHB, 1 μg/mL Vit K, 1 μg/mL Haemin): 1 µg/mL
MID/MIC (amount of antibiotic) ([1]; CD05 Clostridium difficile, Brucella broth with 5% LHB, 1 μg/mL Vit K, 1 μg/mL Haemin): 1 µg/mL
MID/MIC (amount of antibiotic) ([1]; CD06 Clostridium difficile, Brucella broth with 5% LHB, 1 μg/mL Vit K, 1 μg/mL Haemin): 1 µg/mL
MID/MIC (amount of antibiotic) ([1]; CD07 Clostridium difficile, Brucella broth with 5% LHB, 1 μg/mL Vit K, 1 μg/mL Haemin): 1 µg/mL
MID/MIC (amount of antibiotic) ([1]; CD08 Clostridium difficile, Brucella broth with 5% LHB, 1 μg/mL Vit K, 1 μg/mL Haemin): 0.5 µg/mL and 1 µg/mL
MID/MIC (amount of antibiotic) ([1]; CD09 Clostridium difficile, Brucella broth with 5% LHB, 1 μg/mL Vit K, 1 μg/mL Haemin): 1 µg/mL and 2 µg/mL
MID/MIC (amount of antibiotic) ([1]; GN10 Pseudomonas aeruginosa ATCC27853, antibiotic-susceptible type strain): 1 µg/mL
MID/MIC (amount of antibiotic) ([1]; GN32 Acinetobacter baumanii, multi-drug resistant clinical isolate): 50.06 µg/mL
MID/MIC (amount of antibiotic) ([1]; P8119035 Citrobacter freundii, resistant clinical isolate): 4 µg/mL

Nc1nc(N)nc(Nc2ccc([As]3SCC(CO)S3)cc2)n1 (stereo not shown) [Melarsoprol]
IC50 ([2]; 72 h, read-out: T.b. rhod. IC/50 Trial I): 0.003 µg/mL
IC50 ([2]; 72 h, read-out: T.b. rhod. IC/50 Trial III): 0.002 µg/mL
IC50 ([2]; 72 h, read-out: T.b. rhod. IC/50 Trial V): 0.005 µg/mL
IC50 ([2]; read-out: T.b. rhod. IC/50 Avg less 1 ng/ml): 0.00333 µg/mL

C[C@@H]1[C@H](O)[C@@H](C)/C=C/C=C/C=C/C=C/C=C/C=C/C=C/[C@H](O[C@@H]2O[C@H](C)[C@@H](O)[C@H](N)[C@@H]2O)C[C@@H]2O[C@](O)(C[C@@H](O)C[C@@H](O)[C@H](O)CC[C@@H](O)C[C@@H](O)CC(=O)O[C@H]1C)C[C@H](O)[C@H]2C(=O)O [Amphotericin B]
MID/MIC (a variety of fungi; ATCC 22019 Candida parapsilosis - 24 hrs): 0.5 µg/mL
MID/MIC (a variety of fungi; ATCC 22019 Candida parapsilosis - 48 hrs §§ (24 hour read)): 1 µg/mL
MID/MIC (a variety of fungi; NCPF 118 Trichophyton rubrum 48 hrs §§ (24 hour read)): 0.5 µg/mL and 1 µg/mL
MID/MIC (a variety of fungi; NCPF 175 Trychophyton interdigitale 72 hrs §§ (24 hour read)): 2 µg/mL
MID/MIC (a variety of fungi; NCPF 177 *Microsporum canis - 72 hrs }} (required 72 hours incubation)): 0.12 µg/mL
MID/MIC (a variety of fungi; NCPF 224 Trichophyton mentagrophytes - 48 hrs §§ (24 hour read)): 2 µg/mL
MID/MIC (a variety of fungi; NCPF 436 *Microsporum audounii - 72 hrs }} (required 72 hours incubation)): 0.5 µg/mL
MID/MIC (a variety of fungi; NCPF 988 *Microsporum ferrugineum - 72 hrs }} (required 72 hours incubation)): 1 µg/mL
MID/MIC (a variety of fungi; NCPF 2140 Aspergiflus fumigatus - 48 hrs §§ (24 hour read)): 2 µg/mL
MID/MIC (a variety of fungi; NCPF 2175 Aspergillus flavus - 48 hrs §§ (24 hour read)): 4 µg/mL
MID/MIC (a variety of fungi; NCPF 2634 Rhizopus oligosporus - 24 hrs): 0.5 µg/mL
MID/MIC (a variety of fungi; NCPF 2715 Penicillium chrysogenum 48 hrs §§ (24 hour read)): 2 µg/mL
MID/MIC (a variety of fungi; NCPF 2722 Fusarium oxysporum - 48 hrs): 1 µg/mL
MID/MIC (a variety of fungi; NCPF 2743 Mucor circinelloides - 48 hrs): 1 µg/mL
MID/MIC (a variety of fungi; NCPF 3309 Candida glabrata - 24 hrs): 0.5 µg/mL
MID/MIC (a variety of fungi; NCPF 3309 Candida glabrata - 48 hrs): 1 µg/mL
MID/MIC (a variety of fungi; NCPF 3516 Candida lusitaniae - 24 hrs): 0.5 µg/mL
MID/MIC (a variety of fungi; NCPF 3516 Candida lusitaniae - 48 hrs §§ (24 hour read)): 1 µg/mL
MID/MIC (a variety of fungi; NCPF 3853 Trichophyton cutaneum 48 hrs §§ (24 hour read)): 0.5 µg/mL
MID/MIC (a variety of fungi; NCPF 5011 Epidermophyton floccosum - 48 hrs): 0.25 µg/mL
MID/MIC (a variety of fungi; NCPF 7075 *Sporothrix schenkii - 72 hrs (required 72 hours incubation)): 1 µg/mL
MID/MIC (a variety of fungi; NCPF 7147 Alternaria altemata - 48 hrs §§ (24 hour read)): 1 µg/mL
MID/MIC (a variety of fungi; NIH 2624 Aspergillus terreus - 48 hrs §§ (24 hour read)): 2 µg/mL
